From ChEMBL document CHEMBL1134492, “Phenanthroindolizidine alkaloids as cytotoxic substances in a Danaid butterfly, Ideopsis similis, against human cancer cells” (J Med Chem, 2001)
≈ marks a conversion by molar mass, not a printed value.

Tests used:
Format in all cases: functional, cell-based
Details in all cases: Homo sapiens
[1] = tested on: A549; experiment: Inhibitory concentration against A549 (lung cancer) cell line
[2] = tested on: DLD-1; experiment: Inhibitory concentration against DLD-1 (colon cancer) cell line
[3] = tested on: HeLa; experiment: Inhibitory concentration against HeLa (cervical cancer) cell line
[4] = tested on: K562; experiment: Inhibitory concentration against K562 (leukemia) cell line

Row | Structure (SMILES) | IC50 [1] [ng/mL] | IC50 [2] [ng/mL] | IC50 [3] [ng/mL] | IC50 [4] [ng/mL]
1 | COc1cc2c3c(c4ccc(O)cc4c2cc1OC)[C@H](O)[C@@H]1CCCN1C3 [TYLOPHORIDICINE E] | 0.4 (≈ 1.09 nM) | 0.5 (≈ 1.37 nM) | 0.8 (≈ 2.19 nM) | 0.4 (≈ 1.09 nM)
2 | COc1cc2c3c(c4ccc(O)c(OC)c4c2cc1OC)[C@H](O)[C@@H]1CCCN1C3 | 0.5 (≈ 1.26 nM) | 0.8 (≈ 2.02 nM) | 0.1 (≈ 0.253 nM) | 0.5 (≈ 1.26 nM)
